# Measured values as given in publication PMC4436593, “Endoplasmic reticulum stress-independent activation of unfolded protein response kinases by a small molecule ATP-mimic” (eLife, 2015).
# Key:
# [1] = system: XBP1 mRNA splicing in HEK293T cells; test: XBP1 mRNA splicing by RT-PCR in HEK293T cells; type: cell-based, human; conditions: for XBP1 mRNA splicing (in words): IPAx 2 µM, 4 hr
# Protocol: To examine the effects of IPA in living cells, we monitored the UPR in HEK293T cells using RT-PCR to measure splicing of XBP1 mRNA. […] At a concentration of 2 μM IPA, splicing was induced within 2 hr (lane 5). […] We used tunicamycin (Tm), which induces ER stress by blocking N-linked glycosylation, as a positive control to induce the UPR (Figure 2A, lanes 7, and Figure 2B, lane 4).
# Cells were lysed and total RNA was collected (Total RNA Kit 1, EZ-RNA, EZNA [USA]). PolyA^+ mRNA was reverse transcribed with M-MLV (Invitrogen), and the resulting cDNA was used as a template for PCR amplification across the fragment of XBP1 cDNA containing the intron. Primers used to amplify human XBP1: 5′-[…]-3′ and 5′-[…]-3′. To amplify murine XBP1: 5′-[…]-3′ and 5′-[…]-3′. PCR conditions were as follows: 95°C for 5 min, 95°C for 1 min, 58°C for 30 s, 72°C for 30 s, and 72°C for 5 min, with 20 cycles of amplification. PCR products were resolved on a 2.5% agarose tris-acetate EDTA (TAE) gel. As previously reported, a hybrid amplicon species consisting of unspliced Xbp-1 annealed to spliced Xbp-1 can also be produced through this PCR reaction and was visible as a slower migrating band above the unspliced amplicon. The same cDNA was used as template for PCR of DERLIN-3 and HERPUD1, both ATF6 targets, and GAPDH, which was used as loading control. Primers used included the following: DERLIN-3, 5′-[…]-3′ and 5′-[…]-3′; HERPUD1-1, 5′-[…]-3′ and 5′-[…]-3′; GAPDH, 5′-[…]-3′ and 5′-[…]-3′. PCR conditions were: 95°C × 5 min, 95°C × 1 min, 56°C × 30 s, 72°C for 30 s for 25 cycles, 72°C for 5 min at 4°C. PCR products were resolved on a 2% agarose TAE gel.
# [2] = biological target: T1, PERK cytosolic domain (535–1093 Δ660–868) (Homo sapiens, UniProt Q9NZJ5, DEL660-868); test: In vitro PERK cross-linking assay; type: biochemical; conditions: PERK 2 μM; IPAx 50 μM
# T1 construct: GST (N, cleaved yes); made in house; host or cells: E. coli BL21 star (DE3), co-expressed with lambda phosphatase
# T1 sequence (Q9NZJ5 with tags, fused parts or gaps DEL660-868): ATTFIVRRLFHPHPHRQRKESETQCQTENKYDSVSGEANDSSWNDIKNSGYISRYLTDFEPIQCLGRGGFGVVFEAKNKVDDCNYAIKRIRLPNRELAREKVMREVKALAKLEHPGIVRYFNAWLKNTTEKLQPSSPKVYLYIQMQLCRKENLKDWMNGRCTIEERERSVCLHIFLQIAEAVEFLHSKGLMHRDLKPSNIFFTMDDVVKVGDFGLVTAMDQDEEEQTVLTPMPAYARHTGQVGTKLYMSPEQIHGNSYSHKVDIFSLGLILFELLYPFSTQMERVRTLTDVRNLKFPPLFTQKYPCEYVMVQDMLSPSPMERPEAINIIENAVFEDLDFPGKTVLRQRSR
# Protocol: A solution of PERK cytosolic domain (535–1093 Δ660–868) (2 μM) was incubated with IPA or IPAx for 15 min before the addition of 250 μM of the amino group-reactive cross-linking agent bis[sulfosuccinimidyl] […] (BS2g-d0, Thermo Scientific). After 30-min incubation at room temperature Tris-HCl pH 7.5 was added to a final concentration of 55 mM. Samples were then boiled in Laemmli sample buffer and loaded into an Any kD Mini-protean TGX gel (Bio Rad). Cross-linked protein was visualized using Colloidal Coomassie G-250 stain.
# [3] = biological target: IRE1α-KR43 (Homo sapiens, UniProt O75460); test: IRE1α-KR43 RNA cleavage assay with 5′ [32P]-labeled RNA substrate HP21 (kobs, single turnover); type: biochemical; design: IRE1α-KR43 comprises the soluble cytoplasmic portion of IRE1α, composed of the kinase and RNase domains plus 43 amino acids of the linker; 6xHis (N, cleaved yes); made in house; host or cells: SF21 insect cells; conditions: for 1/2kmax, obs (IRE1α-KR43 concentration at half-maximal kobs) / Hill coefficient n: RNase activity as a function of IRE1α-KR43 concentration
# Protocol: To this end, we modified the molecule by substituting urea-linked and variably m- and p-substituted phenyl groups for the benzimidazole of APY29. Diphenyl urea linkers have previously been used successfully in the design of kinase inhibitors ([Dar et al., 2008]; [Dar and Shokat, 2011]; [Korennykh et al., 2012]). In exploring the addition of this chemotype on the APY29 scaffold, we generated a panel of 10 variants (Figure 1B). Each member of the panel was tested in an RNase activity assay using recombinant IRE1α-KR43 and a labeled short hairpin RNA substrate derived from human XBP1 mRNA. IRE1α-KR43 comprises the soluble cytoplasmic portion of IRE1α, composed of the kinase and RNase domains plus 43 amino acids of the linker that bridges the kinase to its transmembrane domain.
# Human IRE1α-KR43 with a hexa-histidine (6xHis) tag in its N-terminus was expressed and purified in SF21 cells as described ([Li et al., 2010]). Cells were lysed in buffer containing 20 mM Tris-HCl, pH 7.5, 600 mM NaCl, 2 mM MgCl2, 3 mM imidazole, 10% glycerol, 1% Triton X-100, 3 mM β-mercaptoethanol, COMPlete protease inhibitors (Roche), and PhosSTOP phosphatase inhibitor cocktail (Roche) and passed through an AVESTIN emulsiflex-C3 3× times for complete lysis. The lysate was cleared using centrifugation at 100,000×g. Clear lysate was allowed to incubate on Ni-NTA agarose (Qiagen) beads for 2 hr before being washed 3× times with buffer containing 20 mM Tris-HCl, pH7.5, 600 mM NaCl, 2 mM MgCl2, 30 mM imidazole, 10% glycerol, and 3 mM β-mercaptoethanol. Protein was eluted from the column by raising the imidazole concentration to 250 mM. The eluate was then passed through a HiTrap desalting column (GE Healthcare). Lastly, the 6xHis was cleaved as described ([Li et al., 2010]) and the resulting protein was then loaded onto a HisTrap HP, 5 × 5 ml column to remove the uncleaved protein. The cleaved protein was then loaded on a Mono-S 5/50 GL column (GE Healthcare), and the eluate was then concentrated to 5 mg/ml and loaded on a Superdex 200 HR 10/300 (GE Healthare) column in buffer containing 20 mM Tris-HCl pH 7.5, 250 mM NaCl, 5% Glycerol and 5 mM tris(2-carboxyethyl)phosphine (TCEP). The pure protein solution was aliquoted and stored at −80°C.
# Sequence of IRE1α-KR43 (O75460 465-977 limits assumed): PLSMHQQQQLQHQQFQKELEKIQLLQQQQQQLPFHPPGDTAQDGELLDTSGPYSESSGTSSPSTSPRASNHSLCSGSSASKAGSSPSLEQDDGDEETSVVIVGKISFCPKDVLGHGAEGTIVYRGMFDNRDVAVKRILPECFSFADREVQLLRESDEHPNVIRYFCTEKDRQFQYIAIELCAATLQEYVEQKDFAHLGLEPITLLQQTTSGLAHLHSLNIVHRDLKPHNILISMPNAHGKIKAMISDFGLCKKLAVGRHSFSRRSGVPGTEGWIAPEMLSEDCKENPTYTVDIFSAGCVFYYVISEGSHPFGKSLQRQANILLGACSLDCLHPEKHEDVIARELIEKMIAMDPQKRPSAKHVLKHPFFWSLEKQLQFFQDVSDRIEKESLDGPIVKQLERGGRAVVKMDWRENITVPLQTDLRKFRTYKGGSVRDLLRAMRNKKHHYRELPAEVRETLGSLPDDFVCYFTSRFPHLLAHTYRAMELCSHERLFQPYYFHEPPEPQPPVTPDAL
structure (smiles),measurement,setting,value
CSc1ccc(NC(=O)Nc2ccc(Nc3nccc(Nc4cc(C5CC5)[nH]n4)n3)cc2)cc1 [IPA],time until XBP1 mRNA splicing was induced,[1]; 2 μM IPA,≤ 2 h
same,XBP1 mRNA splicing (in words),[1],induced XBP1 mRNA splicing in a time- and dose-dependent manner
same,"PERK oligomerization (cross-linked dimers, trimers, tetramers)",[2],significantly increased PERK oligomerization
same,"fold lower enzyme concentration at ½ kmax, obs versus no activator",[3]; compound 20 μM,20 fold
same,"1/2kmax, obs (IRE1α-KR43 concentration at half-maximal kobs)",[3]; compound 20 μM,0.43 µM
same,Hill coefficient n,[3]; compound 20 μM,4.2
same,fold activation of IRE1α-KR43 RNase activity,"[3]; compounds 1 μM, IRE1α-KR43 200 nM, [32P]-labeled HP21",900 fold
CSc1ccc(NC(=O)Nc2ccc(Nc3nccc(Nc4cc(C5CC5)n(C)n4)n3)cc2)cc1 [IPAx],XBP1 mRNA splicing (in words),[1],did not induce XBP1 mRNA splicing
same,"PERK oligomerization (cross-linked dimers, trimers, tetramers)",[2],showed no effect
same,"1/2kmax, obs (IRE1α-KR43 concentration at half-maximal kobs)",[3]; compound 20 μM,8 µM
same,Hill coefficient n,[3]; compound 20 μM,3.3
same,IRE1α activation as a function of enzyme concentration (in words),"[3]; compound 20 μM, versus no-compound control",did not enhance IRE1α activation
same,IRE1α RNase activation (in words),"[3]; compounds 1 μM, IRE1α-KR43 200 nM, versus DMSO control or cmp6/cmp7",inactive
